The IC50 is the concentration that inhibits the measured activity by half.

Experimental findings from patent US20130040935A1, “CYCLIC KETO-ENOLS FOR THERAPY” (BAYER INTELLECTUAL PROPERTY GMBH, priority 2010, published 2013) are described below.

Like-named read-outs stand apart in the source and are kept apart here.

For experiment [1], the target named is T1, human ACC1 (acetyl-coenzyme A carboxylase alpha transcript variant 1) (Homo sapiens, UniProt Q13085).
T1 construct: FLAG (C); made in house; host or cells: baculovirus-infected insect cells (Hi5)
The experiment in a line: Human ACC1 enzyme assay, Assay B1 (ADP-Glo). In kind it is biochemical. On the technique in general: In ADP-Glo the light output rises with the ADP produced.

In experiment [2] the target is human ACC2 (acetyl-coenzyme A carboxylase 2) (Homo sapiens, UniProt O00763). The experiment in a line: Human ACC2 enzyme assay, Assay B2 (ADP-Glo).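 Also: human ACC2 activity read as ADP product, detected by luciferase glow luminescence after residual ATP removal, enzyme near 2 ng/µl in linear range, detection steps at 22 °C.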
Experimental: The hACC2-inhibitory action of the substances of the present invention was measured in the hACC2 assay described in the paragraphs below.
Essentially, the enzyme activity is measured by quantifying the adenosine diphosphate (ADP) formed as a byproduct of the enzyme reactions using the ADP-Glo™ detection system from Promega. In this test, initially the adenosine triphosphate (ATP) not consumed in the enzyme reaction is converted quantitatively with an adenylate cyclase (“ADP-GLO reagent”) into cAMP, the adenylate cyclase is then stopped and (“kinase detection reagent”) the ADP formed is subsequently converted into ATP, which is converted in a luciferase-based reaction into a glow luminescence signal.
The concentration of the hACC2 was adapted to the respective activity of the enzyme and adjusted such that the assay operated in the linear range. Typical concentrations were in the range of 2 ng/μl. […] The amount of light emitted was taken as a measure for the amount of ADP formed and thus for the enzyme activity of the hACC2.
Experiment [3] concerns MCF7. The experiment in a line: Cell proliferation assay (CellTiter-Glo, 96 h), MCF7. It is filed as cell-based. To be noted: Homo sapiens. The procedure:
In accordance with the invention, the substances were tested in cell-based assays for the ability of the substances of inhibiting tumour cell proliferation after a 96-hour incubation with the substance. Cell viability was tested using the CellTiter-Glo® luminescent cell viability assay (Promega). The cells were sown at a density of 2000-5000 cells/well (depending on the cell line) in 100 μl growth medium on 96-well microtitre plates. For each cell line examined, cells were sown on a separate plate to determine the luminescence at t=0 hours and t=96 hours. After overnight incubation at 37° C., the luminescence values for the t=0 samples were determined. The dose plates for the t=96 hours points in time were treated with substances diluted with growth medium. The cells were then incubated at 37° C. for 96 hours, and the luminescence values for the t=96 hours sample were then determined. For data analysis, the t=0 values were subtracted from the t=96 hour values for treated and untreated samples. The differences in luminescence in percent between substance-treated samples and control values were used to determine the growth inhibition in percent.
The substances were tested in the following cell lines which represent the stated indications in an exemplary manner: […]

The target in experiment [4] is recombinant human ACC1 (Homo sapiens, UniProt Q13085). The experiment in a line: Human ACC1 enzyme assay, Assay A1 (HTRF ADP immunoassay).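 Also: ADP generated by the enzyme quantified via competitive time-resolved FRET, read as europium cryptate to d2 energy transfer after 1 h at 22 °C with labelled ADP tracer and anti-ADP antibody.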 Background: Time-resolved FRET reads energy transfer from a long-lived donor to a nearby acceptor.
Experimental: The inhibitory activity of the substances of this invention with regard to acetyl-CoA carboxylase 1 (ACC1) was measured using the ACC1 assay described in the paragraphs below. The basic principle of the assay is the measurement of adenosine diphosphate (ADP), which is formed as a by-product, by means of an HTRF®-based competitive immunoassay (HTRF=Homogeneous Time Resolved Fluorescence).
Typical concentrations were in the range of 2.5 ng/μl.
The amount of complex between d2-labelled ADP and europium cryptate-labelled anti-ADP antibody was then determined by measuring the resonance energy transfer from the europium cryptate to d2.
Where [5] appears, read: Assay B1, read-out: ACC 1 (=B1) IC50.
Setting [6] is: MCF7, Table 9a, 96-hour incubation.
The mark [7] stands for this setting: MCF7, Table 7, 96-hour incubation.
[8] abbreviates: Assay B1, ADP-Glo, read-out: ACC 1 (=B1) IC50.

Sequence of human ACC2 (acetyl-coenzyme A carboxylase 2) (O00763 27-2458 limits assumed): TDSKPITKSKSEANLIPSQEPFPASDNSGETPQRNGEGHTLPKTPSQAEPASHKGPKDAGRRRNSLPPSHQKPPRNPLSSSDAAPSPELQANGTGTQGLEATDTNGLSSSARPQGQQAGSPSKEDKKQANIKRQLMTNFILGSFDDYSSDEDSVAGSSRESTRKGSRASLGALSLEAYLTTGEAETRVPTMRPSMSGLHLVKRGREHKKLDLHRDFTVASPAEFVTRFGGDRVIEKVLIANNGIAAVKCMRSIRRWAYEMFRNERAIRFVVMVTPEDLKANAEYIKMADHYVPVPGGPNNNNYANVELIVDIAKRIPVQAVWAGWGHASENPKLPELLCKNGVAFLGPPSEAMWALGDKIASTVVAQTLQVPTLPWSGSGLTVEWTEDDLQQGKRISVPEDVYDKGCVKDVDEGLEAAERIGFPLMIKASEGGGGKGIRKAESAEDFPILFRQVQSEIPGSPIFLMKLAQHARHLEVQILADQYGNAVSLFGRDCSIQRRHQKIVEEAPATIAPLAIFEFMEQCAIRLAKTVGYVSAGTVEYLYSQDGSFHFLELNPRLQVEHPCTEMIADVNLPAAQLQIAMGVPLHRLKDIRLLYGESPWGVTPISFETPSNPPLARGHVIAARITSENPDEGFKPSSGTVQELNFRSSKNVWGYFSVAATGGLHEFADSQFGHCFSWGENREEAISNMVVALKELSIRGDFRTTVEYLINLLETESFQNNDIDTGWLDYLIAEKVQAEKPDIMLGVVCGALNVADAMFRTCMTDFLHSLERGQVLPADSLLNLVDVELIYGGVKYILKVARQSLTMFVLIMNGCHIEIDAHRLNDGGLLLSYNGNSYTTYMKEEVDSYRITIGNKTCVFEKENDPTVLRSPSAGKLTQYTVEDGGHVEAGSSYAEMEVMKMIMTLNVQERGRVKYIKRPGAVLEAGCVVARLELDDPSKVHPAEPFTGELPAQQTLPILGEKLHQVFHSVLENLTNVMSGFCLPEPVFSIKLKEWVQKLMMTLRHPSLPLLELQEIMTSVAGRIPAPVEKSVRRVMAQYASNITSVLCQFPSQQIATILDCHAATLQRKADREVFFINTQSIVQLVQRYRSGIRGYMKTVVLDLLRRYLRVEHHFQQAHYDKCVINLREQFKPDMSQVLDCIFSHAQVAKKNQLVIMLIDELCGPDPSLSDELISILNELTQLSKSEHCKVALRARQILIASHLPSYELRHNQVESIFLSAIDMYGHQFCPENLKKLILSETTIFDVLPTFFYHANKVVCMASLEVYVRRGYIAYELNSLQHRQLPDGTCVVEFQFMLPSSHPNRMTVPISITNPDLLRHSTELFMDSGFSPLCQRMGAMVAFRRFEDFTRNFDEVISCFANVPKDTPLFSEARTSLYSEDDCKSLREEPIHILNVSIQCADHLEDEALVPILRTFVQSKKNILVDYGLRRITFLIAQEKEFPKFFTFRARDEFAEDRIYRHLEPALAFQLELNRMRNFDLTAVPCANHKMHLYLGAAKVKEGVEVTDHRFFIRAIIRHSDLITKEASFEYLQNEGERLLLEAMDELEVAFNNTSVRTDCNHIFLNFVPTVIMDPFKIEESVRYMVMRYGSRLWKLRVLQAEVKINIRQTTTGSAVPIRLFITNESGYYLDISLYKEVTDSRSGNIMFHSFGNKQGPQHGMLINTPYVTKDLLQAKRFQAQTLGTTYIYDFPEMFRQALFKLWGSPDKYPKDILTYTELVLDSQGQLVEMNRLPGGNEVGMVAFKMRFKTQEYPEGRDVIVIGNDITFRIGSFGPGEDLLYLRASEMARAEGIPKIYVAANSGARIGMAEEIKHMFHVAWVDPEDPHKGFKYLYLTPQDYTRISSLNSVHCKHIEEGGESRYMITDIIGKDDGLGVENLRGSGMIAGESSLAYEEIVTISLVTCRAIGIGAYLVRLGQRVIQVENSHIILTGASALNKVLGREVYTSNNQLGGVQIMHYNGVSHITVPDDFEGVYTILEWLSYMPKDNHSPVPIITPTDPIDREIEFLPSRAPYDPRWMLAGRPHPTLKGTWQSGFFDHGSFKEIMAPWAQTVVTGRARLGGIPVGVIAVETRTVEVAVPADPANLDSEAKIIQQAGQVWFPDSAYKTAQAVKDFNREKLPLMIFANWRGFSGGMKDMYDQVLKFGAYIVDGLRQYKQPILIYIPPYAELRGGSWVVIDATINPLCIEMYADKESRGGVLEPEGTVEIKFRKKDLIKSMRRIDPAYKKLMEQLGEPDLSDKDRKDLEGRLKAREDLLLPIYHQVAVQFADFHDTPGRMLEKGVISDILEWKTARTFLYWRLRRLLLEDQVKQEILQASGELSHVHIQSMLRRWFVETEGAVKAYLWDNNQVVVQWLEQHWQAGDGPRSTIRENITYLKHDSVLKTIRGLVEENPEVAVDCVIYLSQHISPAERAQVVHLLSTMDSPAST

For `CCCC1CCC2(CC1)CC(=O)C(c1cc(-c3ccc(Cl)cc3)ccc1C)=C2O` (stereo not shown) [6-6, 3-(4′-chloro-4-methylbiphenyl-3-yl)-4-hydroxy-8-propylspiro[4.5]dec-3-en-2-one], the IC50 was found to be 946 nM in experiment [1] (setting [5]), 1250 nM in experiment [2] and 582 nM in experiment [3] (setting [6]).
Take `Cc1ccc(-c2ccc(Cl)cc2)cc1C1=C(O)C2(CCCCC2)CNC1=O` [9-3, 4-(4′-chloro-4-methylbiphenyl-3-yl)-5-hydroxy-2-azaspiro[5.5]undec-4-en-3-one]: the figures for the IC50 in experiment [1] (setting [5]), in experiment [2] and in experiment [3] (MCF7 cells) were 2340 nM, more than 20000 nM and 1530 nM, respectively.
`COCC1CCCC2(C1)NC(=O)C(c1cc(-c3ccc(Cl)cc3)ccc1C)=C2O` (stereo not shown) [1-51, 3-(4′-chloro-4-methylbiphenyl-3-yl)-4-hydroxy-7-(methoxymethyl)-1-azaspiro[4.5]dec-3-en-2-one]: the IC50 in experiment [1] came out at 415 nM; in experiment [2] it was 5450 nM; in experiment [3] (setting [7]), 253 nM.
Consider `Cc1ccc(-c2ccc(Cl)cc2)cc1C1=C(O)CN(C2CCCCC2)C1=O` [1-22, 3-(4′-chloro-4-methylbiphenyl-3-yl)-1-cyclohexyl-4-hydroxy-1,5-dihydro-2H-pyrrol-2-one], for which the IC50 turned out to be 2680 nM in experiment [1] (setting [5]), 16300 nM in experiment [2] and 436 nM in experiment [3] (setting [7]).
On the same counts, the results for `Cc1ccc(-c2ccc(Cl)cc2)cc1C1=C(O)C2(CCCCCC2)NC1=O` [1-26, 3-(4′-chloro-4-methylbiphenyl-3-yl)-4-hydroxy-1-azaspiro[4.6]undec-3-en-2-one] are 367 nM, 3090 nM and 188 nM.
On the same counts, the results for `Cc1ccc(-c2ccc(C(F)(F)F)cc2)cc1C1=C(O)C2(CCCCC2)NC1=O` [1-12, 4-hydroxy-3-[4 methyl-4′-(trifluoromethyl)biphenyl-3-yl]-1-azaspiro[4.5]dec-3-en-2-one] are 871 nM, more than 20000 nM and 322 nM.
For `COCC1CCC2(CC1)OC(=O)C(c1cc(-c3ccc(Cl)cc3)ccc1C)=C2O` (stereo not shown) [2-20, 3-(4′-chloro-4-methylbiphenyl-3-yl)-4-hydroxy-8-(methoxymethyl)-1-oxaspiro[4.5]dec-3-en-2-one], the figures for the IC50 in experiment [1] (setting [8]), in experiment [2] and in experiment [3] (MCF7 cells) were 102 nM, 1720 nM and 214 nM, respectively.
In the case of `Cc1ccc(-c2ccc(Cl)cc2)c(C)c1C1=C(O)C2(CCC(C)CC2)NC1=O` (stereo not shown) [1-4, 3-(4′-chloro-2,4-dimethylbiphenyl-3-yl)-4-hydroxy-8-methyl-1-azaspiro[4.5]dec-3-en-2-one], the IC50 in experiment [1] (setting [5]) was determined as 357 nM; in experiment [2], 558 nM; in experiment [3] (setting [7]), 54 nM.
As for `COC1CCC2(CC1)NC(=O)C(c1c(C)cc(C)c(-c3ccc(Cl)cc3)c1C)=C2O` (stereo not shown) [1-9, 3-(4′-chloro-2,4,6-trimethylbiphenyl-3-yl)-4-hydroxy-8-methoxy-1-azaspiro[4.5]dec-3-en-2-one], the IC50 in experiment [1] was found to be 11400 nM; in experiment [2], 276 nM; in experiment [3] (setting [7]), 287 nM.
In the case of `Cc1ccc(-c2ccc(Cl)cc2)cc1C1=C(O)[C@@]2(CC[C@H](OCC(C)C)C2)NC1=O` (relative stereo) [1-49, rel-(5R,7R)-3-(4′-chloro-4-methylbiphenyl-3-yl)-4-hydroxy-7-(2-methylpropoxy)-1-azaspiro[4.4]non-3-en-2-one], the IC50 in experiment [1] (setting [5]) is 10600 nM; in experiment [2] it was more than 20000 nM; in experiment [3] (setting [7]) it was 640 nM.
Turning to `Cc1ccc(-c2ccc(Cl)c(Cl)c2)cc1-c1c(O)c2ccc(Cl)cc2[nH]c1=O` [9-7, 7-chloro-3-(3′,4′-dichloro-4-methyl-biphenyl-3-yl)-4-hydroxyquinolin-2(1H)-one], the IC50 in experiment [1] (setting [5]) worked out at 308 nM; in experiment [2] it was 11200 nM; in experiment [3] (MCF7 cells), 1100 nM.
On to `COC1CCC2(CC1)OC(=O)C(c1cc(-c3ccc(Cl)cc3)c(C)cc1C)=C2O` (stereo not shown) [2-44, 3-(4′-chloro-4,6-dimethylbiphenyl-3-yl)-4-hydroxy-8-methoxy-1-oxaspiro[4.5]dec-3-en-2-one], for which the results for the IC50 in experiment [1], in experiment [2] and in experiment [3] (MCF7 cells) were 220 nM, 244 nM and 121 nM, respectively.
In the case of `Cc1cc(C)c(-c2ccc(Cl)cc2)cc1C1=C(O)C2(CCCCC2)CC1=O` [6-8, 3-(4′-chloro-4,6-dimethylbiphenyl-3-yl)-4-hydroxyspiro[4.5]dec-3-en-2-one], the IC50 in experiment [1] (setting [5]) was 1160 nM; in experiment [2] it was 151 nM; in experiment [3] (setting [6]) it was 254 nM.
For `Cc1cc(C)c(-c2ccc(Cl)cc2)c(C)c1C1=C(O)C2(CCCCCC2)OC1=O` [2-48, 3-(4′-chloro-2,4,6-trimethylbiphenyl-3-yl)-4-hydroxy-1-oxaspiro[4.6]undec-3-en-2-one], the IC50 was determined as 1540 nM in experiment [1] (setting [8]), 417 nM in experiment [2] and 762 nM in experiment [3] (MCF7 cells).
As to `CCC1CCC2(CC1)CC(=O)C(c1cc(-c3ccc(Cl)cc3)ccc1C)=C2O` (stereo not shown) [6-5, 3-(4′-chloro-4-methylbiphenyl-3-yl)-8-ethyl-4-hydroxyspiro[4.5]dec-3-en-2-one], the IC50 in experiment [1] (setting [5]) came to 523 nM; in experiment [2], 1210 nM; in experiment [3] (setting [6]) it was 605 nM.
Regarding `Cc1ccc(-c2ccc(Cl)cc2)c(C)c1C1=C(O)C2(CCC3(CCCO3)CC2)NC1=O` (stereo not shown) [1-34, 11-(4′-chloro-2,4-dimethylbiphenyl-3-yl)-12-hydroxy-1-oxa-9-azadispiro[4.2.4.2]tetradec-11-en-10-one], the IC50 was 297 nM in experiment [1] (setting [5]), 11400 nM in experiment [2] and 112 nM in experiment [3] (setting [7]).
In the case of `Cc1ccc(-c2ccc(Cl)cc2)c(C)c1C1=C(O)C2(CCCCC2)OC1=O` [2-4, 3-(4′-chloro-2,4-dimethylbiphenyl-3-yl)-4-hydroxy-1-oxaspiro[4.5]dec-3-en-2-one], the IC50 in experiment [1] (setting [8]) is 175 nM; in experiment [2] it was 2700 nM; in experiment [3] (MCF7 cells) it was 624 nM.
Consider `Cc1ccc(-c2ccc(Cl)cc2)cc1C1=C(O)C(C)(C)CNC1=O` [9-2, 3-(4′-chloro-4-methylbiphenyl-3-yl)-4-hydroxy-5,5-dimethyl-5,6-dihydropyridin-2(1H)-one], for which the half-maximal inhibitory concentration (IC50) is 11200 nM in experiment [1] (setting [5]), more than 20000 nM in experiment [2] and 1720 nM in experiment [3] (MCF7 cells).
As for `CO[C@H]1CC[C@]2(CC1)NC(=O)C(c1c(C)ccc(-c3ccc(F)cc3)c1C)=C2O` [1-45, (5s,8s)-3-(4′-fluoro-2,4-dimethylbiphenyl-3-yl)-4-hydroxy-8-methoxy-1-azaspiro[4.5]dec-3-en-2-one], the IC50 stood at 701 nM in experiment [1], 8830 nM in experiment [2] and 626 nM in experiment [3] (setting [7]).
As for `Cc1cc(C)c(-c2ccc(Cl)cc2)cc1C1=C(O)C(C)OC1=O` (stereo not shown) [2-45, 3-(4′-chloro-4,6-dimethylbiphenyl-3-yl)-4-hydroxy-5-methylfuran-2(5H)-one], the figures for the IC50 in experiment [1], in experiment [2] and in experiment [3] (MCF7 cells) were 1830 nM, 17500 nM and 6700 nM, respectively.
Take `CO[C@H]1CC[C@]2(CC1)NC(=O)C(c1c(C)ccc(-c3ccc(Cl)cc3)c1C)=C2O` [1-121, (5s,8s)-3-(4′-Chloro-2,4-dimethylbiphenyl-3-yl)-4-hydroxy-8-methoxy-1-azaspiro[4.5]dec-3-en-2-one]: the IC50 in experiment [4] came out at 402 nM; in experiment [1], 172 nM; in experiment [2], 1010 nM; in experiment [3] (setting [7]), 233 nM.
With `Cc1ccc(-c2ccc(Cl)cc2)cc1-c1c(O)c2ccc(Cl)cc2[nH]c1=O` [9-11, 7-chloro-3-(4′-chloro-4-methylbiphenyl-3-yl)-4-hydroxyquinolin-2(1H)-one], the IC50 in experiment [1] (setting [5]) was 397 nM; in experiment [2] (read-out: ACC 2 (=B2) IC50, Assay B2) it was 4070 nM; in experiment [3] (MCF7 cells) it was 299 nM.
With `Cc1ccc(-c2ccc(Cl)cc2)c(C)c1C1=C(O)[C@]2(CC[C@]3(CCCO3)CC2)OC1=O` [2-26, (5s,8r)-3-(4′-chloro-2,4-dimethylbiphenyl-3-yl)-4-hydroxy-1,9-dioxadispiro[4.2.4.2]tetradec-3-en-2-one], the IC50 in experiment [1] (setting [8]) was 6110 nM; in experiment [2], more than 20000 nM; in experiment [3] (MCF7 cells) it was 5520 nM.
With `Cc1cc(C)c(-c2ccc(Cl)cc2)cc1C1=C(O)C2(CCSCC2)OC1=O` [2-42, 3-(4′-chloro-4,6-dimethylbiphenyl-3-yl)-4-hydroxy-1-oxa-8-thiaspiro[4.5]dec-3-en-2-one], the IC50 in experiment [1] (setting [8]) is 246 nM; in experiment [2] it was 1560 nM; in experiment [3] (MCF7 cells), 466 nM.
Consider `Cc1ccc(-c2ccc(Cl)cc2)c(C)c1C1=C(O)C2(CCC(OCC(F)(F)F)CC2)OC1=O` (stereo not shown) [2-32, 3-(4′-chloro-2,4-dimethylbiphenyl-3-yl)-4-hydroxy-8-(2,2,2-trifluoroethoxy)-1-oxaspiro[4.5]dec-3-en-2-one], for which the figures for the IC50 in experiment [1], in experiment [2] and in experiment [3] (MCF7 cells) were 339 nM, 2820 nM and 112 nM, respectively.
On to `Cc1ccc(-c2ccc(F)cc2)cc1C1=C(O)[C@]2(CC[C@@]3(CCCO3)CC2)OC1=O` [2-28, (5r,8s)-3-(4′-fluoro-4-methylbiphenyl-3-yl)-4-hydroxy-1,9-dioxadispiro[4.2.4.2]tetradec-3-en-2-one], for which the IC50 in experiment [1] (setting [8]) amounted to 128 nM; in experiment [2], 4600 nM; in experiment [3] (MCF7 cells) it was 296 nM.
